Each structure is given as a SMILES string.

Sequence of full-length ATR (Q13535 whole entry): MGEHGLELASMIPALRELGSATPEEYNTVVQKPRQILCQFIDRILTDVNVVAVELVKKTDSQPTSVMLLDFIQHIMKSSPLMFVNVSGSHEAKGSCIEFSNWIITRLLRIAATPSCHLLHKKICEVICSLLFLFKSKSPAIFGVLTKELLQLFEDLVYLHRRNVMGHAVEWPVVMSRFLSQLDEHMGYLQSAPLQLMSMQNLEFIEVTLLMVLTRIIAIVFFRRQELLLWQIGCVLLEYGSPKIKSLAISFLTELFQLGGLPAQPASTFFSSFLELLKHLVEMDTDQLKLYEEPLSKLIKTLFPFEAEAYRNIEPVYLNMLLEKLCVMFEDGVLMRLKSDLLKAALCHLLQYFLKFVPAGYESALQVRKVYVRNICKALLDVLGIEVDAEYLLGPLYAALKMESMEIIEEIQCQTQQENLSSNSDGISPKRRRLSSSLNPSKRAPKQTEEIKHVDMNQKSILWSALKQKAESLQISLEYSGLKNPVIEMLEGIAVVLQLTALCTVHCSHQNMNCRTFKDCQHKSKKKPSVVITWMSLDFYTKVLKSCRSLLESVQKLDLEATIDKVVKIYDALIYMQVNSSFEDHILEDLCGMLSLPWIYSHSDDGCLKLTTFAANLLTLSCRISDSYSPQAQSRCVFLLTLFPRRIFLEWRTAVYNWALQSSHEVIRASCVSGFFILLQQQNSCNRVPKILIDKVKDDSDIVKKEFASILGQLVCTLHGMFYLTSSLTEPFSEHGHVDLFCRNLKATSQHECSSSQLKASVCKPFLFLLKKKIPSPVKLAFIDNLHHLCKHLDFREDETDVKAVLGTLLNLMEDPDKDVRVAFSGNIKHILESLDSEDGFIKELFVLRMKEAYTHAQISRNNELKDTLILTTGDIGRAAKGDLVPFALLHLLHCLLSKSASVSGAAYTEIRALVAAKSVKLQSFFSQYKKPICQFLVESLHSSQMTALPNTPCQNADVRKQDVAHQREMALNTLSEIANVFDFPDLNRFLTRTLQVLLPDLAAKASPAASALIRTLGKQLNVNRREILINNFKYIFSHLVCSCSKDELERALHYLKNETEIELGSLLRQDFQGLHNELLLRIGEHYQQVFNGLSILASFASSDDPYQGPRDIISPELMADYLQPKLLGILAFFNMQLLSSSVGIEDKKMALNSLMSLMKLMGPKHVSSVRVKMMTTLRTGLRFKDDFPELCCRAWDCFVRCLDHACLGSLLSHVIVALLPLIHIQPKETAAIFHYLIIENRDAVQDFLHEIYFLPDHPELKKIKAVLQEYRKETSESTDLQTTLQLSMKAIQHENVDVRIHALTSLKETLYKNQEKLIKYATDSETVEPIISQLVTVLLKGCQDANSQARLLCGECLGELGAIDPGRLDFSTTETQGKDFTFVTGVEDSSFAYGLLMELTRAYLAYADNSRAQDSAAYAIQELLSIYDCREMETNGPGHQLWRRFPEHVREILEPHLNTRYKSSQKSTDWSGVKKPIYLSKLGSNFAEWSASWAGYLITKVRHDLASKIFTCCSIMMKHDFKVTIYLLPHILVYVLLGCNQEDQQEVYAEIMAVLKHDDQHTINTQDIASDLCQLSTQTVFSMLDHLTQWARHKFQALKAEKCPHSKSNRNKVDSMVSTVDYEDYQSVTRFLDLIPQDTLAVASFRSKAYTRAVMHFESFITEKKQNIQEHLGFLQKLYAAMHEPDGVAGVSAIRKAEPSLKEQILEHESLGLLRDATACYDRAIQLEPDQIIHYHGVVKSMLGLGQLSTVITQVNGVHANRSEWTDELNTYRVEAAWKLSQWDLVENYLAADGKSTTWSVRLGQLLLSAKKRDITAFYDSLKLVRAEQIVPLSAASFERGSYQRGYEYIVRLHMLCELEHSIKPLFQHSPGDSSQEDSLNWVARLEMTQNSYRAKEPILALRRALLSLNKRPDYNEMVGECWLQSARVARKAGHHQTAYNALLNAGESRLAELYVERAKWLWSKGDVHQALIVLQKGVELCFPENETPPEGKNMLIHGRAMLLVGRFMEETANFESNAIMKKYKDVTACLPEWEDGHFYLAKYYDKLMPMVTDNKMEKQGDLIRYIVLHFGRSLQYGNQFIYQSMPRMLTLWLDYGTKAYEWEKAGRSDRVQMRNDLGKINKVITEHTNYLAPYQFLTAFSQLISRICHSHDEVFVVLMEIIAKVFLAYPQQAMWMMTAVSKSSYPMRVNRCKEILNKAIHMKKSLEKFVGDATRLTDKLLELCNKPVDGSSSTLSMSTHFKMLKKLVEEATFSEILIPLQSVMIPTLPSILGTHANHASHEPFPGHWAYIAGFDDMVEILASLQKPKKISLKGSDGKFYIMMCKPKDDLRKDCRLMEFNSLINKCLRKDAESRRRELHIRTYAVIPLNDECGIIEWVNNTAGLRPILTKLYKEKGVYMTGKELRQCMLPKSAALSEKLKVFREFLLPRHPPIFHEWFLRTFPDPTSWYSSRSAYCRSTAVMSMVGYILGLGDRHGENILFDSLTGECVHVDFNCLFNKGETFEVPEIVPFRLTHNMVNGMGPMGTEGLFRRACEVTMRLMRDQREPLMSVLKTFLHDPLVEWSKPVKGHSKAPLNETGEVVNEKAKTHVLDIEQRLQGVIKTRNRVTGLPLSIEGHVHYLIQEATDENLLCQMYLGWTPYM

This assay has as its target full-length ATR (Homo sapiens (Human), UniProt Q13535). The assay can be described thus: ATR Inhibition Assay (radioactive-phosphate incorporation). Format: biochemical. The conditions noted are these: read-out: ATR Ki. The method, then:
Compounds were screened for their ability to inhibit ATR kinase using a radioactive-phosphate incorporation assay. Assays were carried out in a mixture of 50 mM Tris/HCl (pH 7.5), 10 mM MgCl2 and 1 mM DTT. Final substrate concentrations were […] [γ-33P]ATP (3mCi 33P ATP/mmol ATP, Perkin Elmer) and 800 μM target peptide ([…]).
Assays were carried out at 25° C. in the presence of 5 nM full-length ATR. An assay stock buffer solution was prepared containing all of the reagents listed above, with the exception of ATP and the test compound of interest. […] The plate was pre-incubated for 10 minutes at 25° C. and the reaction initiated by addition of 15 μL [γ-33P]ATP (final concentration 10 μM).
The reaction was stopped after […] by the addition of 30 μL 0.1M phosphoric acid containing 2 mM ATP. A multiscreen phosphocellulose filter 96-well plate (Millipore, Cat no. MAPHN0B50) was pretreated with 100 μL 0.2M phosphoric acid prior to the addition of 45 μL of the stopped assay mixture. […] After drying, 100 μL Optiphase ‘SuperMix’ liquid scintillation cocktail (Perkin Elmer) was added to the well prior to scintillation counting (1450 Microbeta Liquid Scintillation Counter, Wallac).
After removing mean background values for all of the data points, Ki(app) data were calculated from non-linear regression analysis of the initial rate data using the Prism software package (GraphPad Prism version 3.0cx for Macintosh, GraphPad Software, San Diego Calif., USA).
As usually defined, the Ki is the dissociation constant of the complex between target and ligand, obtained from inhibition or displacement. As to `CC(C)[S+]([O-])c1ccccc1-c1cnc(N)c(-c2nnc(-c3ccccc3)o2)n1` (stereo not shown) [IA-136, 5-(2-(isopropylsulfinyl)phenyl)-3-(5-phenyl-1,3,4-oxadiazol-2-yl)pyrazin-2-amine], the Ki lay in the range of 10 to 100 nM.

With `CN1CCN(C(=O)c2cccc(-c3cnc(N)c(C(=O)Nc4ccccc4)n3)c2)CC1` [Compound I-59, 3-amino-6-(3-(4-methylpiperazine-1-carbonyl)phenyl)-N-phenylpyrazine-2-carboxamide], the Ki is 100 to 5000 nM.

Take `COc1ccc(NC(C)=O)cc1NC(=O)c1nc(-c2cccnc2)cnc1N` [Compound I-100, 3-amino-N-(5-ethanamido-2-methoxyphenyl)-6-(pyridin-3-yl)pyrazine-2-carboxamide]: the Ki fell in the range of 100 to 5000 nM.

On to `Nc1ncc(-c2ccc(C(=O)N3CCC(CO)CC3)cc2)nc1C(=O)Nc1ccccc1` [Compound I-79, 3-amino-6-(4-(4-(hydroxymethyl)piperidine-1-carbonyl)phenyl)-N-phenylpyrazine-2-carboxamide], for which the Ki lay in the range of 10 to 100 nM.

As to `CCc1cc(-c2cnc(N)c(-c3nnc(-c4ccc(CNC)cc4)o3)n2)ccc1S(=O)(=O)C(C)C` [IA-326, 5-(3-ethyl-4-isopropylsulfonyl-phenyl)-3-[5-[4-(methylaminomethyl)phenyl]-1,3,4-oxadiazol-2-yl]pyrazin-2-amine], the Ki was no more than 10 nM.

In the case of `Nc1ncc(-c2ccc(N3CCOCC3)cc2)nc1C(=O)Nc1ccccc1` [Compound I-13, 3-amino-6-(4-morpholinophenyl)-N-phenylpyrazine-2-carboxamide], the Ki lay in the range of 100 to 5000 nM.

Consider `CC#Cc1cc(C(=O)N(C)C)ccc1-c1cnc(N)c(-c2nnc(-c3ccccc3)o2)n1` [IA-268, 4-[5-amino-6-(5-phenyl-1,3,4-oxadiazol-2-yl)pyrazin-2-yl]-N,N-dimethyl-3-prop-1-ynyl-benzamide], for which the Ki lay in the range of 10 to 100 nM.

As for `N#Cc1ccncc1-c1cnc(N)c(-c2nnc(-c3ccccc3)o2)n1` [IA-153, 3-(5-amino-6-(5-phenyl-1,3,4-oxadiazol-2-yl)pyrazin-2-yl)pyridine-4-carbonitrile], the Ki was in the range of 10 to 100 nM.

On to `Nc1ncc(-c2cccc(C(=O)N3CCOCC3)c2)nc1C(=O)Nc1ccc(N2CCCC2)cc1` [Compound I-26, 3-amino-6-(3-(morpholine-4-carbonyl)phenyl)-N-(4-(pyrrolidin-1-yl)phenyl)pyrazine-2-carboxamide], for which the Ki lay in the range of 100 to 5000 nM.

With `Cc1ccc2nc(-c3nc(-c4ccc(C(=O)N5CCN(C)CC5)cc4)cnc3N)[nH]c2c1` [Compound I-150, (4-(5-amino-6-(6-methyl-1H-benzo[d]imidazol-2-yl)pyrazin-2-yl)phenyl)(4-methylpiperazin-1-yl)methanone], the Ki was in the range of 10 to 100 nM.

With `COc1ccccc1NC(=O)c1nc(-c2ccc3[nH]ncc3c2)cnc1N` [Compound I-36, 3-amino-6-(1H-indazol-5-yl)-N-(2-methoxyphenyl)pyrazine-2-carboxamide], the Ki fell in the range of 10 to 100 nM.

In the case of `CN(C)C(=O)c1ccc(-c2cnc(N)c(-c3nnc(-c4cccnc4)o3)n2)cc1` [IA-41], the Ki was in the range of 10 to 100 nM.

For the compound `COC1CN(C(=O)c2cccc(-c3cnc(N)c(C(=O)Nc4ccccc4)n3)c2)C1` [Compound I-60, 3-amino-6-(3-(3-methoxyazetidine-1-carbonyl)phenyl)-N-phenylpyrazine-2-carboxamide], the Ki lay within 100 to 5000 nM.

Turning to `CC(C)S(=O)(=O)c1ccc(-c2cnc(N)c(-c3nnc(-c4ccc(CNCCF)cc4)o3)n2)cc1` [IA-346, 3-[5-[4-[(2-fluoroethylamino)methyl]phenyl]-1,3,4-oxadiazol-2-yl]-5-(4-isopropylsulfonylphenyl)pyrazin-2-amine], the Ki was no more than 10 nM.

Consider `CC(C)(C)CC(=O)N1CCCN(C(=O)c2ccc(-c3cnc(N)c(-c4nnc(-c5ccccc5)o4)n3)cc2)CC1` [IA-31], for which the Ki was no more than 10 nM.

With `CN(C)C(=O)c1ccc(-c2cnc(N)c(-c3nnc(-c4ccccc4I)o3)n2)cc1` [IA-205, 4-[5-amino-6-[5-(2-iodophenyl)-1,3,4-oxadiazol-2-yl]pyrazin-2-yl]-N,N-dimethyl-benzamide], the Ki is no more than 10 nM.

The values above are taken from patent US10479784B2, “Substituted pyrazin-2-amines as inhibitors of ATR kinase” (Vertex Pharmaceuticals Incorporated, priority 2008, dated 2019).
